System: MV-4-11 cells
Assay: Gene expression microarray analysis (Affymetrix PrimeView) and GSEA
Format: cell-based, human
Set-up: RFU PODN (11730768_x_at) / Fold change /veh PODN (11730768_x_at) / RFU LINC00158 (11744669_a_at) / Fold change /veh LINC00158 (11744669_a_at) / RFU DUSP10 (11751237_a_at) / Fold change /veh DUSP10 (11751237_a_at) / RFU ID3 (11757404_x_at) / Fold change /veh ID3 (11757404_x_at) / RFU PLEKHG5 (11737974_s_at) / Fold change /veh PLEKHG5 (11737974_s_at) / RFU LRRC4B (11730491_at) / Fold change /veh LRRC4B (11730491_at) / RFU GIMAP4 (11747438_a_at) / Fold change /veh GIMAP4 (11747438_a_at) / RFU KRT8 (11758183_x_at) / Fold change /veh KRT8 (11758183_x_at) / RFU CNN1 (11734310_a_at) / Fold change /veh CNN1 (11734310_a_at) / RFU VPS37D (11726825_at) / Fold change /veh VPS37D (11726825_at) / RFU C10orf10 (11716522_x_at) / Fold change /veh C10orf10 (11716522_x_at) / RFU KIR2DL2 /// KIR2DL4 /// KIR2DL5A /// KIR2DL5B /// KIR2DS1 /// KIR2DS2 /// KIR2DS3 /// KIR2DS4 /// KIR3DL3 /// KIR3DL3 /// KIR3DS1 (11738374_at) / Fold change /veh KIR2DL2 /// KIR2DL4 /// KIR2DL5A /// KIR2DL5B /// KIR2DS1 /// KIR2DS2 /// KIR2DS3 /// KIR2DS4 /// KIR3DL3 /// KIR3DL3 /// KIR3DS1 (11738374_at) / RFU C1QL1 (11718748_at) / Fold change /veh C1QL1 (11718748_at) / RFU TMPRSS4 (11747572_a_at) / Fold change /veh TMPRSS4 (11747572_a_at) / RFU HAMP (11756126_x_at) / Fold change /veh HAMP (11756126_x_at) / RFU RNFT2 (11725882_a_at) / Fold change /veh RNFT2 (11725882_a_at) / RFU NR4A2 (11747474_a_at) / Fold change /veh NR4A2 (11747474_a_at) / RFU ABCC12 (11746883_a_at) / Fold change /veh ABCC12 (11746883_a_at) / RFU TMEM136 (11760407_x_at) / Fold change /veh TMEM136 (11760407_x_at) / RFU CLDN22 /// WWC2 (11732394_at) / Fold change /veh CLDN22 /// WWC2 (11732394_at) / RFU HLA-DPB1 (11760878_x_at) / Fold change /veh HLA-DPB1 (11760878_x_at) / RFU SPINT1 (11716480_a_at) / Fold change /veh SPINT1 (11716480_a_at) / RFU GAP43 (11754022_s_at) / Fold change /veh GAP43 (11754022_s_at) / RFU A4GNT (11735810_at) / Fold change /veh A4GNT (11735810_at) / RFU PRB3 (11715151_x_at) / Fold change /veh PRB3 (11715151_x_at) / RFU TUBB4B (11761932_at) / Fold change /veh TUBB4B (11761932_at) / RFU CAPN14 (11732068_a_at) / Fold change /veh CAPN14 (11732068_a_at) / RFU TMCC2 (11721928_a_at) / Fold change /veh TMCC2 (11721928_a_at) / RFU IRGQ (11745062_a_at) / Fold change /veh IRGQ (11745062_a_at) / RFU FAM174B (11720279_a_at) / Fold change /veh FAM174B (11720279_a_at) / RFU TMPRSS4 (11748680_a_at) / Fold change /veh TMPRSS4 (11748680_a_at) / RFU FAM212B (11763350_a_at) / Fold change /veh FAM212B (11763350_a_at) / RFU PLEKHG5 (11743358_a_at) / Fold change /veh PLEKHG5 (11743358_a_at) / RFU ZSCAN30 (11745921_a_at) / Fold change /veh ZSCAN30 (11745921_a_at) / RFU CMKLR1 (11741424_a_at) / Fold change /veh CMKLR1 (11741424_a_at) / RFU LOC101060620 /// MAPK8IP1 (11723275_at) / Fold change /veh LOC101060620 /// MAPK8IP1 (11723275_at) / RFU SPTSSB (11747773_x_at) / Fold change /veh SPTSSB (11747773_x_at) / RFU PRSS12 (11739890_at) / Fold change /veh PRSS12 (11739890_at) / RFU BIN1 (11741810_x_at) / Fold change /veh BIN1 (11741810_x_at) / RFU WNT11 (11732464_a_at) / Fold change /veh WNT11 (11732464_a_at) / RFU C10orf10 (11716521_a_at) / Fold change /veh C10orf10 (11716521_a_at) / RFU C5orf56 (11738089_at) / Fold change /veh C5orf56 (11738089_at) / RFU CYB561 (11721691_x_at) / Fold change /veh CYB561 (11721691_x_at) / RFU ANKRD19P (11752326_a_at) / Fold change /veh ANKRD19P (11752326_a_at) / RFU OR2T12 /// OR2T33 /// OR2T8 (11738714_s_at) / Fold change /veh OR2T12 /// OR2T33 /// OR2T8 (11738714_s_at) / RFU VCAN (11748164_a_at) / Fold change /veh VCAN (11748164_a_at) / RFU JSRP1 (11732532_at) / Fold change /veh JSRP1 (11732532_at) / RFU KRTAP10-11 (11738290_x_at) / Fold change /veh KRTAP10-11 (11738290_x_at) / RFU MYO3A (11730013_a_at) / Fold change /veh MYO3A (11730013_a_at) / RFU EBF3 (11725865_a_at) / Fold change /veh EBF3 (11725865_a_at) / RFU CAMK2N1 (11719241_x_at) / Fold change /veh CAMK2N1 (11719241_x_at) / RFU C5orf56 (11738088_a_at) / Fold change /veh C5orf56 (11738088_a_at) / RFU OLFML3 (11715873_a_at) / Fold change /veh OLFML3 (11715873_a_at) / RFU LOC100653217 /// NTM (11731650_a_at) / Fold change /veh LOC100653217 /// NTM (11731650_a_at) / RFU MAPK11 (11762145_a_at) / Fold change /veh MAPK11 (11762145_a_at) / RFU FIZ1 (11724087_x_at) / Fold change /veh FIZ1 (11724087_x_at) / RFU OASL (11726364_x_at) / Fold change /veh OASL (11726364_x_at) / RFU SOX15 (11748057_x_at) / Fold change /veh SOX15 (11748057_x_at) / RFU CD79A (11719716_a_at) / Fold change /veh CD79A (11719716_a_at) / RFU HIST1H1D (11736915_at) / Fold change /veh HIST1H1D (11736915_at) / RFU CASKIN2 (11723855_a_at) / Fold change /veh CASKIN2 (11723855_a_at) / RFU LOC730098 (11760151_x_at) / Fold change /veh LOC730098 (11760151_x_at) / RFU OR4N2 (11742367_at) / Fold change /veh OR4N2 (11742367_at) / RFU PRRT2 (11749266_a_at) / Fold change /veh PRRT2 (11749266_a_at) / RFU SNX32 (11753110_a_at) / Fold change /veh SNX32 (11753110_a_at) / RFU CDHR5 (11726645_a_at) / Fold change /veh CDHR5 (11726645_a_at) / RFU RCAN1 (11760418_a_at) / Fold change /veh RCAN1 (11760418_a_at) / RFU FAM167A (11723789_a_at) / Fold change /veh FAM167A (11723789_a_at) / RFU FAM26E (11764081_at) / Fold change /veh FAM26E (11764081_at) / RFU ISYNA1 (11749810_s_at) / Fold change /veh ISYNA1 (11749810_s_at) / RFU ACY1 (11761880_at) / Fold change /veh ACY1 (11761880_at) / RFU 11764098_at / Fold change /veh 11764098_at / RFU SAMD14 (11745864_x_at) / Fold change /veh SAMD14 (11745864_x_at) / RFU NPB (11741838_a_at) / Fold change /veh NPB (11741838_a_at) / RFU TMPRSS6 (11731388_a_at) / Fold change /veh TMPRSS6 (11731388_a_at) / RFU KRTAP10-2 (11738614_at) / Fold change /veh KRTAP10-2 (11738614_at) / RFU ARHGAP8 /// PRR5-ARHGAP8 (11727945_x_at) / Fold change /veh ARHGAP8 /// PRR5-ARHGAP8 (11727945_x_at) / RFU KRTAP5-7 /// NADSYN1 (11734609_at) / Fold change /veh KRTAP5-7 /// NADSYN1 (11734609_at) / RFU RASL12 (11751679_a_at) / Fold change /veh RASL12 (11751679_a_at) / RFU CDKN2B (11736163_a_at) / Fold change /veh CDKN2B (11736163_a_at) / RFU PRF1 (11729649_at) / Fold change /veh PRF1 (11729649_at) / RFU, ZNF638 /// ZNF638-IT1 / Fold change vs veh, ZNF638 /// ZNF638-IT1 / RFU, PANK3 / Fold change vs veh, PANK3 / RFU, SH3YL1 / Fold change vs veh, SH3YL1 / RFU, ZEB2 / Fold change vs veh, ZEB2 / RFU, NRIP1 / Fold change vs veh, NRIP1 / RFU, PTTG1IP / Fold change vs veh, PTTG1IP / RFU, CAPN2 / Fold change vs veh, CAPN2 / RFU, MED14 / Fold change vs veh, MED14 / RFU, SNORA58 / Fold change vs veh, SNORA58 / RFU, C1orf63 / Fold change vs veh, C1orf63 / RFU, LRRFIP1 / Fold change vs veh, LRRFIP1 / RFU, NDUFAF7 / Fold change vs veh, NDUFAF7 / RFU, SLC12A2 / Fold change vs veh, SLC12A2 / RFU, IBTK / Fold change vs veh, IBTK / RFU, ESF1 / Fold change vs veh, ESF1 / Fold change vs veh, TMEM50B / RFU, TAOK1 / Fold change vs veh, TAOK1 / RFU, ACBD3 / Fold change vs veh, ACBD3 / RFU, TMA16 / Fold change vs veh, TMA16 / RFU, RWDD3 / Fold change vs veh, RWDD3 / RFU, BCAT1 / Fold change vs veh, BCAT1 / RFU, EDEM3 / Fold change vs veh, EDEM3 / RFU, TMEM33 / Fold change vs veh, TMEM33 / RFU, WDR75 / Fold change vs veh, WDR75 / RFU, AHCTF1 / Fold change vs veh, AHCTF1 / RFU, TFRC / Fold change vs veh, TFRC / RFU, ZDHHC17 / Fold change vs veh, ZDHHC17 / RFU, NOM1 / Fold change vs veh, NOM1 / RFU, ARL8B / Fold change vs veh, ARL8B / RFU, ZBTB11 / Fold change vs veh, ZBTB11 / RFU, TAMM41 / Fold change vs veh, TAMM41 / RFU, KIAA1704 /// LOC100996395 / Fold change vs veh, KIAA1704 /// LOC100996395 / RFU, ING1 / Fold change vs veh, ING1 / RFU, TRMT61B / Fold change vs veh, TRMT61B / RFU, FUBP3 / Fold change vs veh, FUBP3 / RFU, TP53 / Fold change vs veh, TP53 / RFU, TNKS2 / Fold change vs veh, TNKS2 / RFU, ZFP14 / Fold change vs veh, ZFP14 / RFU, ACTR2 / Fold change vs veh, ACTR2 / RFU, PPP3R1 / Fold change vs veh, PPP3R1 / RFU, PIK3R1 / Fold change vs veh, PIK3R1 / RFU, HNRNPA1 / Fold change vs veh, HNRNPA1 / RFU, RNF170 / Fold change vs veh, RNF170 / RFU, ZNF28 / Fold change vs veh, ZNF28 / RFU, RNGTT / Fold change vs veh, RNGTT / RFU, OGT / Fold change vs veh, OGT / RFU, BRD1 / Fold change vs veh, BRD1 / RFU, MARS / Fold change vs veh, MARS / RFU, ZNF655 / Fold change vs veh, ZNF655 / RFU, FAHD1 / Fold change vs veh, FAHD1 / RFU, BDP1 / Fold change vs veh, BDP1 / RFU, LRRCC1 / Fold change vs veh, LRRCC1 / RFU, ARID1A / Fold change vs veh, ARID1A / RFU, ZNF146 / Fold change vs veh, ZNF146 / RFU, ZNF330 / Fold change vs veh, ZNF330 / RFU, GPN3 / Fold change vs veh, GPN3 / RFU, C9orf123 / Fold change vs veh, C9orf123 / RFU, N4BP2L2 / Fold change vs veh, N4BP2L2 / RFU, ARFIP1 / Fold change vs veh, ARFIP1 / RFU, FAM179B / Fold change vs veh, FAM179B / RFU, BCL10 / Fold change vs veh, BCL10 / RFU, UHRF1BP1L / Fold change vs veh, UHRF1BP1L / RFU, BET1 / Fold change vs veh, BET1 / RFU, CNOT2 / Fold change vs veh, CNOT2 / RFU, ZNF268 / Fold change vs veh, ZNF268 / Fold change vs veh, ZNF507 / RFU, DGCR2 / Fold change vs veh, DGCR2 / RFU, WDSUB1 / Fold change vs veh, WDSUB1 / Fold change vs veh, HSP90B1 /// MIR3652 / RFU, ADSS / Fold change vs veh, ADSS / RFU, GK / Fold change vs veh, GK / RFU, ZNF148 / Fold change vs veh, ZNF148 / RFU, TAF9 / Fold change vs veh, TAF9 / RFU, SLC1A5 / Fold change vs veh, SLC1A5 / RFU, SLMO2 / Fold change vs veh, SLMO2 / RFU, ABCC4 / Fold change vs veh, ABCC4 / RFU, LOC101060439 /// RAP1B / Fold change vs veh, LOC101060439 /// RAP1B / RFU, RFX7 / Fold change vs veh, RFX7 / RFU, GTPBP10 / Fold change vs veh, GTPBP10 / RFU, CNEP1R1 / Fold change vs veh, CNEP1R1 / RFU, BIVM-ERCC5 /// ERCC5 / Fold change vs veh, BIVM-ERCC5 /// ERCC5 / RFU, ILF3 / Fold change vs veh, ILF3 / RFU 11762660_at / Fold change /veh 11762660_at / RFU VCAN (11757783_s_at) / Fold change /veh VCAN (11757783_s_at) / RFU DDX43 (11728927_at) / Fold change /veh DDX43 (11728927_at) / RFU KRT8 (11758188_x_at) / Fold change /veh KRT8 (11758188_x_at) / RFU NKD1 (11759106_at) / Fold change /veh NKD1 (11759106_at) / RFU SRD5A1 (11742802_a_at) / Fold change /veh SRD5A1 (11742802_a_at) / RFU TPSAB1 /// TPSB2 (11721975_s_at) / Fold change /veh TPSAB1 /// TPSB2 (11721975_s_at) / RFU GSTM3 (11746129_a_at) / Fold change /veh GSTM3 (11746129_a_at) / RFU IL23R (11737362_x_at) / Fold change /veh IL23R (11737362_x_at) / RFU TMEM51 (11727254_a_at) / Fold change /veh TMEM51 (11727254_a_at) / RFU PIWIL2 (11732686_x_at) / Fold change /veh PIWIL2 (11732686_x_at) / RFU ORM1 (11744905_x_at) / Fold change /veh ORM1 (11744905_x_at) / RFU CCDC152 (11743942_at) / Fold change /veh CCDC152 (11743942_at) / RFU ECM1 (11717891_a_at) / Fold change /veh ECM1 (11717891_a_at) / RFU IL23R (11748794_a_at) / Fold change /veh IL23R (11748794_a_at) / RFU TNFAIP8L3 (11732012_x_at) / Fold change /veh TNFAIP8L3 (11732012_x_at) / RFU MBOAT4 (11741988_at) / Fold change /veh MBOAT4 (11741988_at) / RFU 11764193_at / Fold change /veh 11764193_at / RFU TMEM53 (11763286_at) / Fold change /veh TMEM53 (11763286_at) / RFU MAGEB2 (11727129_at) / Fold change /veh MAGEB2 (11727129_at) / RFU TMEM200A (11744735_a_at) / Fold change /veh TMEM200A (11744735_a_at) / RFU CCDC152 (11751479_a_at) / Fold change /veh CCDC152 (11751479_a_at) / RFU FAM211A (11726209_a_at) / Fold change /veh FAM211A (11726209_a_at) / RFU RGS16 (11746705_a_at) / Fold change /veh RGS16 (11746705_a_at) / RFU VCAN (11755009_s_at) / Fold change /veh VCAN (11755009_s_at) / RFU RHOB (11743442_s_at) / Fold change /veh RHOB (11743442_s_at) / RFU RGS16 (11720943_a_at) / Fold change /veh RGS16 (11720943_a_at) / RFU RGS16 (11720944_at) / Fold change /veh RGS16 (11720944_at) / RFU, VPS4B / Fold change vs veh, VPS4B / RFU, CREB1 / Fold change vs veh, CREB1 / RFU, DNAJC13 / Fold change vs veh, DNAJC13 / RFU, GNAQ / Fold change vs veh, GNAQ / RFU, CDK5R1 / Fold change vs veh, CDK5R1 / RFU, ZRANB3 / Fold change vs veh, ZRANB3 / RFU, CUL4A / Fold change vs veh, CUL4A / RFU, CCNY / Fold change vs veh, CCNY / RFU, UFL1 / Fold change vs veh, UFL1 / RFU, COG3 / Fold change vs veh, COG3 / RFU, DIAPH2 / Fold change vs veh, DIAPH2 / RFU, SKA2 / Fold change vs veh, SKA2 / RFU, AFF3 / Fold change vs veh, AFF3 / RFU, LMF1 / Fold change vs veh, LMF1 / RFU, IPO11 / Fold change vs veh, IPO11 / RFU, DFFB / Fold change vs veh, DFFB / RFU, FOXP1 / Fold change vs veh, FOXP1 / RFU, CARD8 / Fold change vs veh, CARD8 / RFU, STRN3 / Fold change vs veh, STRN3 / RFU, ADK / Fold change vs veh, ADK / RFU, RASSF2 / Fold change vs veh, RASSF2 / RFU, WIPF1 / Fold change vs veh, WIPF1 / RFU, LARP1B / Fold change vs veh, LARP1B / RFU, RASA1 / Fold change vs veh, RASA1 / RFU, RB1 / Fold change vs veh, RB1 / RFU, PPFIA1 / Fold change vs veh, PPFIA1 / RFU, MAT2A / Fold change vs veh, MAT2A / RFU, CCT5 / Fold change vs veh, CCT5 / RFU, WDR92 / Fold change vs veh, WDR92 / RFU, CUX1 / Fold change vs veh, CUX1 / RFU, TTC7A / Fold change vs veh, TTC7A / RFU, TMEM135 / Fold change vs veh, TMEM135 / RFU, DEPTOR / Fold change vs veh, DEPTOR / RFU, CPM / Fold change vs veh, CPM / RFU, DNAJB6 / Fold change vs veh, DNAJB6 / RFU, CACNA2D3 / Fold change vs veh, CACNA2D3 / RFU, DTX4 / Fold change vs veh, DTX4 / RFU, TFCP2 / Fold change vs veh, TFCP2 / RFU, GMCL1 /// GMCL1P1 / Fold change vs veh, GMCL1 /// GMCL1P1 / RFU, AEBP2 / Fold change vs veh, AEBP2 / RFU, SNHG1 /// SNORD22 /// SNORD25 /// SNORD26 /// SNORD27 /// SNORD28 /// SNORD29 /// SNORD31 / Fold change vs veh, SNHG1 /// SNORD22 /// SNORD25 /// SNORD26 /// SNORD27 /// SNORD28 /// SNORD29 /// SNORD31 / Fold change (Aza/veh), C12orf56 (ProbeSet 11735607_a_at) / Fold change (ACY-1035/veh), C12orf56 (ProbeSet 11735607_a_at) / Fold change (Aza/veh), FGFR1OP (ProbeSet 11751329_s_at) / Fold change (ACY-1035/veh), FGFR1OP (ProbeSet 11751329_s_at) / Fold change (Aza/veh), VPS36 (ProbeSet 11739960_a_at) / Fold change (ACY-1035/veh), VPS36 (ProbeSet 11739960_a_at) / RFU SYPL1 (11715823_x_at) / Fold change /veh SYPL1 (11715823_x_at) / RFU IGFBP7 (11715501_s_at) / Fold change /veh IGFBP7 (11715501_s_at) / RFU REEP3 (11722064_at) / Fold change /veh REEP3 (11722064_at) / RFU IGLL1 (11728026_x_at) / Fold change /veh IGLL1 (11728026_x_at): dose or concentration left out as unconfirmed
Settings: ProbeSet 11728443_a_at; LIST B

## Nc1ncn([C@@H]2O[C@H](CO)[C@@H](O)[C@H]2O)c(=O)n1 [azacitidine]
  Fold change vs veh, TAOK1: 0.96

From PMC5218480 (PLoS ONE, 2017)
